Results published in EP4664463A1, “COMPUTER-IMPLEMENTED METHOD FOR OLFACTORY PROPERTY PREDICTION” (Givaudan SA, priority 2024, dated 2025).
Like-named read-outs stand apart in the source and are kept apart here.

What was measured:
Format in all cases: cell-based
OR2T4 = target: T1, OR2T4 (Homo sapiens, UniProt Q8NH00, D328E/G331D/M330K); test: cell-based; conditions: OR2T4 with SEQ ID NO: 86
T1 construct: expressed in transfected cells; host or cells: HEK293T cells stably expressing human RTP1S (V227I) and RTP2 (L220R)
T1 sequence (Q8NH00 with tags, fused parts or gaps D328E/M330K/G331D): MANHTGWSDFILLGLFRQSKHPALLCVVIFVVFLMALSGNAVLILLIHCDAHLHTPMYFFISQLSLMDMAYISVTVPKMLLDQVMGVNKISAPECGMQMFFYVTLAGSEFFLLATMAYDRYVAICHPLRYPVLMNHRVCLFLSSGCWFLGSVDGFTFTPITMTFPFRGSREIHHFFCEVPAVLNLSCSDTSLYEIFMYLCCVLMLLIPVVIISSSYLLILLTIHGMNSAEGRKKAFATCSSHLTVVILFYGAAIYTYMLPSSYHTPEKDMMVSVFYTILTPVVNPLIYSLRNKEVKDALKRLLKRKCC
Text: (§1) To create an expression plasmid, an OR coding sequence fused at the end of TM7 to the desired C-terminus sequence was synthesized by a DNA synthesis service provider (BioCat GmbH, Germany) and inserted into pcDNA3.1(+) (Invitrogen, MA, USA) downstream of the CMV promoter sequence (SEQ ID NO: 82) using BamHI and Notl restriction sites. All the synthetic OR nucleotide sequences described below in Examples 1-15 further contained at their N-terminus a nucleotide sequence encoding a signal peptide (mmLucy-FLAG-rho, SeQ ID NOs: 80, 81) and at the C-terminus the bgh terminator sequence (SEQ ID NO: 83). All the OR expression plasmids also contain a Kozak sequence (GCCACC) between the BamHI restriction site and the start codon of the signal peptide. These plasmids thus contain a constitutively expressed OR gene.

OR2AP1 = target: T2, OR2AP1 (Homo sapiens, UniProt Q8NGE2); test: Luciferase assay with odorant mixtures/single ingredients, OR with SEQ ID NO: 221
T2 construct: expressed in transfected cells; host or cells: HEK293T stably expressing human RTP1S(V227I) and RTP2(L220R) (general method)
T2 sequence (Q8NGE2 with tags, fused parts or gaps): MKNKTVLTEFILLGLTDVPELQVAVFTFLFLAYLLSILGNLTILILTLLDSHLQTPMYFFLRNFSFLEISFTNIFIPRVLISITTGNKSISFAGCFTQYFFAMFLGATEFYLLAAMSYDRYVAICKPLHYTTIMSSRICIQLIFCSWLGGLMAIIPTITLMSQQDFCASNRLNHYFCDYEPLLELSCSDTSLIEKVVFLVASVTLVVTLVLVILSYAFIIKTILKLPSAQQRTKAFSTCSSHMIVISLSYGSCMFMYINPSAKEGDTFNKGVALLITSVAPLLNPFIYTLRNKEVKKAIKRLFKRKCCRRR

OR2J2 = target: T3, OR2J2 (Homo sapiens, UniProt O76002, A146V/A218T/A302I/G300K/H297E/H74Y); test: as above
T3 construct: expressed in transfected cells; host or cells: HEK293T stably expressing human RTP1S(V227I) and RTP2(L220R) (general method)
T3 sequence (O76002 with tags, fused parts or gaps H74Y/A146V/A218T/H297E/G300K/A302I): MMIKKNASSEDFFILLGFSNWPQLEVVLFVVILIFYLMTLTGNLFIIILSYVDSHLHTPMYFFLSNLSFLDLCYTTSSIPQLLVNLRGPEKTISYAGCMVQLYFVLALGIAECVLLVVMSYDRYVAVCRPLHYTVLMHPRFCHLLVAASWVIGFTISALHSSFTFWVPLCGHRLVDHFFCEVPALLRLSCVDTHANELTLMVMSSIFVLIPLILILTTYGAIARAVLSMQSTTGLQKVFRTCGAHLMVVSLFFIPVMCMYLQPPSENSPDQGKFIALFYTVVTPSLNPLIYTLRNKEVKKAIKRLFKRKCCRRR
Text: (§2) All human class II OR and all key genetic variants of these OR were synthesized with a sequence coding for an identical modified C-terminal domain […] (SEQ ID NO: 221) in the vector pcDNA3.1(+) to generate a library of all class II OR with an improved C-terminal domain. Class II OR library members with modified C-terminal domains
(§3) Similarly, a mixture of odorants with fruity-lactonic descriptors was made containing equal amounts of dodecalactone delta, heptalactone gamma, octalactone gamma, nonalactone gamma, undecalactone gamma, decalactone gamma, dodecalactone gamma, decalactone delta, methyl tuberate and nectaryl. […] Table 25. OR identified by screening class II OR with a mixture of fruity lactones
(§4) In a subsequent de-convolution experiment, the single ingredients were tested in a dose-response test on all the identified OR. […] Thus, OR2AP1 and OR2J2 are particularly strongly activated by the long-chain dodecalactone gamma, while OR10A3 is very sensitive to several longer chain lactones. […] Among the five OR, OR10A3 is the most sensitive. […] Table 26. OR identified by screening class II OR with a mixture of fruity lactones tested with individual lactones in a dose-response analysis

OR10J1(M51I,I92M) = target: T4, OR10J1(M51I,I92M) (Homo sapiens, UniProt P30954, I103M/M62I); test: as above
T4 construct: expressed in transfected cells; host or cells: HEK293T stably expressing human RTP1S(V227I) and RTP2(L220R) (general method)
T4 sequence (P30954 with tags, fused parts or gaps M62I/I103M): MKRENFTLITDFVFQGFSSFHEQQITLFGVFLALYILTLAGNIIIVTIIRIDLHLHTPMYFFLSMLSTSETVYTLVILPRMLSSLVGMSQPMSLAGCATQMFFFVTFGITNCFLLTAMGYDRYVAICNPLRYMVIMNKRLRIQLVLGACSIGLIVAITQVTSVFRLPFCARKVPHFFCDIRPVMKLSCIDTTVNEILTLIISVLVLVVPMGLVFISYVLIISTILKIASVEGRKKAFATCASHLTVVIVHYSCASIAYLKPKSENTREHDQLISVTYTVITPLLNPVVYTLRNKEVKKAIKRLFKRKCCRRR
Text: as §2, §3, §4

OR10A3 = target: T5, OR10A3 (Homo sapiens, UniProt P58181); test: as above
T5 construct: expressed in transfected cells; host or cells: HEK293T stably expressing human RTP1S(V227I) and RTP2(L220R) (general method)
T5 sequence (P58181 with tags, fused parts or gaps): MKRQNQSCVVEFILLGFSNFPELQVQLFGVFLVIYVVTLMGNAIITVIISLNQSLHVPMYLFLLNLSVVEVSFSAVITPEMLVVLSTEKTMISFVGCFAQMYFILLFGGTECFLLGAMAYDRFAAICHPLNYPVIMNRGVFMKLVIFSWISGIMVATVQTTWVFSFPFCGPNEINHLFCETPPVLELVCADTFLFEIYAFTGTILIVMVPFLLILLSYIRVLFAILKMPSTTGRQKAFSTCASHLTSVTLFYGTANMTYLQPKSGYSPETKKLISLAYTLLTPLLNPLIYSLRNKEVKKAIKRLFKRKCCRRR
Text: as §2, §3, §4

[1] = target: T6, OR10A6(A117V,V140G,L287P) (Homo sapiens, UniProt Q8NH74, A117V/L287P/V140G); test: as above
T6 construct: expressed in transfected cells; host or cells: HEK293T stably expressing human RTP1S(V227I) and RTP2(L220R) (general method)
T6 sequence (Q8NH74 with tags, fused parts or gaps A117V/V140G/L287P): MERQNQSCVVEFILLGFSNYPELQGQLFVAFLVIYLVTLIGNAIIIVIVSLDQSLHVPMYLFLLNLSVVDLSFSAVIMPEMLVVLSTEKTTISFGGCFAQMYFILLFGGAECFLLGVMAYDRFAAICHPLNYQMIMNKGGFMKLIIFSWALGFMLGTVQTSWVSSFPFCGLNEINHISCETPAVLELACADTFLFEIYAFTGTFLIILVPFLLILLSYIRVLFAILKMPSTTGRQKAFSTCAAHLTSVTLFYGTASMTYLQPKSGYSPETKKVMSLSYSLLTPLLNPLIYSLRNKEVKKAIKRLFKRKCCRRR
Text: as §2, §3, §4

OR5A2 = target: T7, OR5A2 (Homo sapiens, UniProt Q8NGI9); test: Luciferase dose-response, wild-type vs changed C-terminus (SEQ ID NO: 86); conditions: OR5A2 with SEQ ID NO: 86
T7 construct: expressed in transfected cells; host or cells: HEK293T cells with stably integrated human RTP1S (V227I) and RTP2 (L220R)
T7 sequence (Q8NGI9 with tags, fused parts or gaps): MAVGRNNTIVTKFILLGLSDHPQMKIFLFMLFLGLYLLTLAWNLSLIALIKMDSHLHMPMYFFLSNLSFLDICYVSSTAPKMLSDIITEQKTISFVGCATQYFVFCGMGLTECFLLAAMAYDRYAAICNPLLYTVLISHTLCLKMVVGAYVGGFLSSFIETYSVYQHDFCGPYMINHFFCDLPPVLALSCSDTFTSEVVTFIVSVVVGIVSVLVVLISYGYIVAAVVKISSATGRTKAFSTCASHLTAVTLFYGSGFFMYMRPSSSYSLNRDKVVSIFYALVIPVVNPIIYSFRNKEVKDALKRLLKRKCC
Text: as §1

OR7C1 = target: T8, OR7C1 (Homo sapiens, UniProt O76099, D296E/G302K/M297V/R299D/T295K); test: as above; conditions: for EC50: read-out: Potency EC50
T8 construct: expressed in transfected cells; host or cells: HEK293T cells stably expressing human RTP1S (V227I) and RTP2 (L220R); transient transfection of pcDNA3.1(+) OR plasmid
T8 sequence (O76099 with tags, fused parts or gaps T295K/D296E/M297V/R299D/G302K limits assumed): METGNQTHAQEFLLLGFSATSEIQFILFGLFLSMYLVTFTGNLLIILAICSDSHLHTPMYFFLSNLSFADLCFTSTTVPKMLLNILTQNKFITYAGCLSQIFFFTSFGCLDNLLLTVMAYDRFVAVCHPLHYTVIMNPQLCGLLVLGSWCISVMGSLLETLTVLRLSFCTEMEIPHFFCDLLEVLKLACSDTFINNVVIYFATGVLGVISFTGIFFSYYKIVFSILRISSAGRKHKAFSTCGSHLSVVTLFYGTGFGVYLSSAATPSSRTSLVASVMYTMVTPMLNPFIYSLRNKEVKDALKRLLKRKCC
Text: as §1

| SMILES | EC2 (concentration for 2-fold luciferase induction) (OR2AP1) | EC2 (concentration for 2-fold luciferase induction) (OR2J2) | EC2 (concentration for 2-fold luciferase induction) (OR10J1(M51I,I92M)) | EC10 (concentration for 10-fold OR activation) (OR10A3) [µM] | EC2 (concentration for 2-fold luciferase induction) [1] | further results |
| --- | --- | --- | --- | --- | --- | --- |
| CCCSSCCC [dipropyl disulfide] | – | – | – | – | – | ligands identified in screening of sulfur odorants (OR2T4): good ligands |
| CCCCCCCC1CCC(=O)O1 (stereo not shown) [Undecalactone gamma] | 6.53 µM | 0.71 µM | 2.11 µM | 0.28 | 0.34 µM | – |
| CC1=CCC(C(C)CC2CCCC2=O)CC1 (stereo not shown) [Nectaryl] | 19.72 µM | – | inactive | 2.32 | 1.12 µM | – |
| CCCCCC1CCC(=O)O1 (stereo not shown) [Nonalactone gamma] | inactive | 12.85 µM | 11.14 µM | 2.83 | 11.34 µM | – |
| CCCCC1CCC(=O)O1 (stereo not shown) [Octalactone gamma] | inactive | 65.20 µM | 101.73 µM | 26.93 | inactive | – |
| CC1OCCC1S (stereo not shown) [2-methyl-3-tetrahydrofuranthiol] | – | – | – | – | – | ligands identified in screening of sulfur odorants (OR2T4): good ligands |
| CCCCCC1CCCC(=O)O1 (stereo not shown) [Decalactone delta] | inactive | 98.89 µM | 31.73 µM | 2.10 | 5.31 µM | – |
| CCCCCCCCC1CCC(=O)O1 (stereo not shown) [Dodecalactone gamma] | 1.31 µM | 1.41 µM | 5.31 µM | 0.85 | 0.48 µM | – |
| CCOc1cc(C=O)ccc1O [ethyl vanillin] | – | – | – | – | – | response of the modified receptor (OR5A2): no response |
| CCCCCCCC1CCCC(=O)O1 (stereo not shown) [Dodecalactone delta] | 15.76 µM | 35.12 µM | 31.38 µM | 2.59 | 1.11 µM | – |
| CCCCCCC1CCC(=O)O1 (stereo not shown) [Decalactone gamma] | 33.66 µM | 3.27 µM | 3.63 µM | 0.84 | 1.62 µM | – |
| CC(CO)C1=C2C(C)(C)C3CCC2(C3)C(C)(C)CC1 (stereo not shown) [Ambermax] | – | – | – | – | – | Comments on efficacy (OR7C1): 3.5-fold lower maximal induction for wild-type; Fold-improvement potency (OR7C1): 2.7; Fold-improvement threshold (OR7C1): 16.2; luciferase induction (OR7C1; 1 µM, OR7C1 with SEQ ID NO: 86): around 10 fold; EC50 (OR7C1; changed C-term SEQ ID NO: 86): 2.3 µM; Detection threshold; concentration for 2-fold induction (OR7C1; changed C-term. SEQ ID NO: 86): 0.17 µM; Detection threshold; concentration for 2-fold induction (OR7C1; wild-type): 2.76 µM; EC50 (OR7C1; wild-type): 6.14 µM |
| CCCC1CCC(=O)O1 (stereo not shown) [Heptalactone gamma] | inactive | inactive | inactive | 298.04 | inactive | – |
